Laboratory results as given in PMC5413048, “Palmitic acid is a toll-like receptor 4 ligand that induces human dendritic cell secretion of IL-1β” (PLoS ONE, 2017).

Target: T1, MD-2 (TLR4/MD-2 complex) (Homo sapiens, UniProt Q9Y6Y9)
T1 construct: gene LY96; MD2 Glu17—Asn160 + 10-His Tag, co-expressed with TLR4 ectodomain Glu24—Lys631 + 10-His Tag; with TLR4 (O00206), ectodomain Glu24—Lys631
Experiment: isothermal titration calorimetry of PA into recombinant human TLR4/MD-2 ([…]°C)
Type: binding

T1 sequence (Q9Y6Y9 17-160): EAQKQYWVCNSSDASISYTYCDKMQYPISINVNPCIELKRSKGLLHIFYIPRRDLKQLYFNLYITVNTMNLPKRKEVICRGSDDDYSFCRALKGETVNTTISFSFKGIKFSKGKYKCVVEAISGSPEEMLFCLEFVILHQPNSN
T1 sequence (O00206 24-631 partner): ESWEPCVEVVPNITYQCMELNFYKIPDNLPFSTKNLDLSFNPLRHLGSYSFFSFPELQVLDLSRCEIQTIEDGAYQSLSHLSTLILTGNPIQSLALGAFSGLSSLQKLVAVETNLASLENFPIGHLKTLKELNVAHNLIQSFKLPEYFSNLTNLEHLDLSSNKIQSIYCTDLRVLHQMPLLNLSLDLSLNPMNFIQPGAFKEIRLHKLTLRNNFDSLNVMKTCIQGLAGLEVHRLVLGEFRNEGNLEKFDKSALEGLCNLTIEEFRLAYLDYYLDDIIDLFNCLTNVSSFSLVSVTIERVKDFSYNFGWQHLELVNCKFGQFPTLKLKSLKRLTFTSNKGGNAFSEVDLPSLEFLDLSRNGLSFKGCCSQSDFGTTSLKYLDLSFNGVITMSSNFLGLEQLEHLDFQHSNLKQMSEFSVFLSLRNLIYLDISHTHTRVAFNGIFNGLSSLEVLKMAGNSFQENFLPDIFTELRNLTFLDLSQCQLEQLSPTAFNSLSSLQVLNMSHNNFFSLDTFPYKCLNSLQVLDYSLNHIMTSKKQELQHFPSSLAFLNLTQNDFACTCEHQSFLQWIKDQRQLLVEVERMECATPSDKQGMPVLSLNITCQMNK

Kd: 2.3 µM
Compound: CCCCCCCCCCCCCCCC(=O)O [PA, palmitic acid]
